Experimental data: patent publication US8980830B2 (priority 2007, dated 2015)
“And” between values parts separate entries of the source, which are not always exact repeats. Equal values may be shown once. Read-outs that look alike come from different tables or passages of the source. Blank lines part the entries; values can stand above or below the compound they belong to. Bridge positions count the residues as written; N and C are the ends. Square brackets hold non-standard residues; d marks the D form. Peptide text beside a SMILES is read from it. * marks the point of attachment. X1 = CC(C)CCC[C@@H](C)[C@H]1CC[C@H]2[C@@H]3CC=C4C[C@@H](OC(=O)CCOCCOCCOCCOCCOCCOCCOCCOCCOCCOCCOCCOCCNC(=O)CSCCC(=O)*)CC[C@]4(C)[C@H]3CC[C@]12C; PhLac = O=C(O)[C@@H](O)Cc1ccccc1

What was measured:
GLP-1 Receptor = GLP-1 Receptor (Homo sapiens, UniProt P43220); assay: Functional assay, cAMP induction (luciferase reporter, HEK293) at GLP-1 receptor; assay type: cell-based
Glucagon Receptor = Glucagon Receptor (Homo sapiens, UniProt P47871); assay: cAMP inhibition: antagonism of glucagon-induced cAMP at glucagon receptor; assay type: cell-based; set-up: expressed in transfected cells; host or cells: HEK293
[1] = Glucagon antagonism IC50 (nM, inhibit 0.2-0.8 nM glucagon), Table 18
[2] = GLP-1 agonism EC50 (nM), Table 16
[3] = GLP-1 agonism EC50 (nM), Table 19
[4] = Glucagon antagonism IC50 (nM, inhibit 0.8 nM glucagon), Table 19
[5] = GLP-1 agonism EC50 (nM), Table 17
[6] = Glucagon antagonism IC50 (nM, inhibit 0.2-0.8 nM glucagon), Table 17

Chain of Glucagon Receptor (P47871 26-477): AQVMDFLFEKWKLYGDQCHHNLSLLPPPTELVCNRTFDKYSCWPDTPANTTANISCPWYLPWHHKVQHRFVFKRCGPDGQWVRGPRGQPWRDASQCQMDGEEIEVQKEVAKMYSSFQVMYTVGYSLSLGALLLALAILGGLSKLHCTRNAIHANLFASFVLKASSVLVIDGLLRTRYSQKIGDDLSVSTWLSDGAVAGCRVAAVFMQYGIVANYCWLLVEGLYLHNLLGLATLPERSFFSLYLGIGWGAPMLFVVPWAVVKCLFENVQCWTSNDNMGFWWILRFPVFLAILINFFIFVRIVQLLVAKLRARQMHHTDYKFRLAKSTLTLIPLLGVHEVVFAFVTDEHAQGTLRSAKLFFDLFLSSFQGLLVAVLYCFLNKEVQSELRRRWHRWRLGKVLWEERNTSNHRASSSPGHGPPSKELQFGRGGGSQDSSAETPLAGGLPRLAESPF
Chain of GLP-1 Receptor (P43220 24-463): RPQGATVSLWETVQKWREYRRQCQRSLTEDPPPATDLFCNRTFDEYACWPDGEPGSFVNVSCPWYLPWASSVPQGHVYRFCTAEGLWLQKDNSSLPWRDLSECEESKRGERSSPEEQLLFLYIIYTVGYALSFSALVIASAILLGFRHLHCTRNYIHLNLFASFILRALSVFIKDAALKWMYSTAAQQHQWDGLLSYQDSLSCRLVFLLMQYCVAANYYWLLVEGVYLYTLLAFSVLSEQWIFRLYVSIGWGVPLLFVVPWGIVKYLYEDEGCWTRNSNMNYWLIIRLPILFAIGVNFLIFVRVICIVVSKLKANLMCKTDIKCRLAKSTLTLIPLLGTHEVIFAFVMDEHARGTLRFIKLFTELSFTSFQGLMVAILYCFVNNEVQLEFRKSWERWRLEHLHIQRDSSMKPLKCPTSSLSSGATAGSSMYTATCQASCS

SMILES: CSCC[C@H](NC(=O)[C@H](CC(C)C)NC(=O)[C@H](Cc1c[nH]c2ccccc12)NC(=O)[C@H](CCC(N)=O)NC(=O)[C@@H](NC(=O)[C@H](Cc1ccccc1)NC(=O)[C@H](CC(=O)O)NC(=O)[C@H](CCC(N)=O)NC(=O)[C@H](C)NC(=O)[C@H](CCCNC(=N)N)NC(=O)[C@H](CCCNC(=N)N)NC(=O)[C@@H]1CCC(=O)NCCCC[C@H](NC(=O)[C@H](CO)NC(=O)[C@H](Cc2ccc(O)cc2)NC(=O)[C@H](CCC(=O)O)NC(=O)[C@H](CO)NC(=O)[C@@H](NC(=O)[C@@H](N)Cc2ccccc2)[C@@H](C)O)C(=O)N[C@@H](Cc2ccc(O)cc2)C(=O)N[C@@H](CC(C)C)C(=O)N[C@@H](CC(=O)O)C(=O)N1)C(C)C)C(=O)N[C@@H](CC(N)=O)C(=O)N[C@H](C(=O)NCC(=O)N1CCC[C@H]1C(=O)N[C@@H](CO)C(=O)N[C@@H](CO)C(=O)NCC(=O)N[C@@H](C)C(=O)N1CCC[C@H]1C(=O)N1CCC[C@H]1C(=O)N1CCC[C@H]1C(=O)N[C@@H](CO)C(N)=O)[C@@H](C)O [E9, K12E16(lactam)] (H-FTSEYSKYLDERRAQDFVQWLMNTGPSSGAPPPS-NH2; lactam 7-11; N-terminus assumed)
EC50 (GLP-1 Receptor; GLP-1 (nM), Table 13, GLP-1 agonist activity): 63 nM | IC50 (Glucagon Receptor; Table 13, glucagon antagonist activity, read-out: Glu): 2010 nM

SMILES: CSCC[C@H](NC(=O)[C@H](CC(C)C)NC(=O)[C@H](Cc1c[nH]c2ccccc12)NC(=O)[C@H](CCC(N)=O)NC(=O)[C@@H](NC(=O)[C@H](Cc1ccccc1)NC(=O)[C@H](CC(=O)O)NC(=O)[C@@H]1CCCCNC(=O)CC[C@H](NC(=O)[C@H](CC(=O)O)NC(=O)[C@H](CC(C)C)NC(=O)[C@H](Cc2ccc(O)cc2)NC(=O)[C@H](CCCCN)NC(=O)[C@H](CO)NC(=O)[C@H](Cc2ccc(O)cc2)NC(=O)[C@H](CC(=O)O)NC(=O)[C@H](CO)NC(=O)[C@@H](NC(=O)[C@@H](O)Cc2ccccc2)[C@@H](C)O)C(=O)N[C@@H](CCCNC(=N)N)C(=O)N[C@@H](CCCNC(=N)N)C(=O)N[C@@H](C)C(=O)N1)C(C)C)C(=O)N[C@@H](CC(=O)O)C(=O)N[C@H](C(=O)NCC(=O)N1CCC[C@H]1C(=O)N[C@@H](CO)C(=O)N[C@@H](CO)C(=O)NCC(=O)N[C@@H](C)C(=O)N1CCC[C@H]1C(=O)N1CCC[C@H]1C(=O)N1CCC[C@H]1C(=O)N[C@@H](CO)C(=O)N[C@@H](CCCCNC(=O)CCSCC(=O)NCCOCCOCCOCCOCCOCCOCCOCCOCCOCCOCCOCCOCCC(=O)O[C@H]1CC[C@@]2(C)C(=CC[C@H]3[C@@H]4CC[C@H]([C@H](C)CCCC(C)C)[C@@]4(C)CC[C@@H]32)C1)C(N)=O)[C@@H](C)O [K40-chol G(6-40), [PLA6, E16K20(lactam), D28, K40(COCH2CH2S-Chol)]G(6-40) amide] (H-[PhLac]TSDYSKYLDERRAKDFVQWLMDTGPSSGAPPPSK(X1)-NH2; lactam 11-15)
EC50 (GLP-1 Receptor; GLP-1 agonism EC50 (nM), Table 23, standard deviation in ( )): 47 nM | IC50 (Glucagon Receptor; Glucagon antagonism IC50 (nM, inhibit 0.4 nM glucagon), Table 23, standard deviation in ( )): 312 nM

EC50 (GLP-1 Receptor; GLP-1 agonism EC50 (nM), Table 18): 0.11 nM | IC50 (Glucagon Receptor; [1]): 129 ± 106 nM | character of antagonism (partial antagonist, wrapped cell) (Glucagon Receptor; Table 18): partial | character of antagonism (partial antagonist, wrapped cell) (Glucagon Receptor; Table 19): partial | character of antagonism (partial antagonist, wrapped cell) (Glucagon Receptor; Table 20): partial
SMILES: CSCC[C@H](NC(=O)[C@H](CC(C)C)NC(=O)[C@H](Cc1c[nH]c2ccccc12)NC(=O)[C@H](CCC(N)=O)NC(=O)[C@@H](NC(=O)[C@H](Cc1ccccc1)NC(=O)[C@H](CC(=O)O)NC(=O)[C@@H]1CCCCNC(=O)CC[C@H](NC(=O)[C@H](CC(=O)O)NC(=O)[C@H](CC(C)C)NC(=O)[C@H](Cc2ccc(O)cc2)NC(=O)[C@H](CCCCN)NC(=O)[C@H](CO)NC(=O)[C@H](Cc2ccc(O)cc2)NC(=O)[C@H](CCC(=O)O)NC(=O)[C@H](CO)NC(=O)[C@@H](NC(=O)[C@H](Cc2ccccc2)NC(=O)[C@@H](NC(=O)CNC(=O)[C@H](CCC(=O)O)NC(=O)[C@H](C)NC(=O)[C@@H](N)Cc2c[nH]cn2)[C@@H](C)O)[C@@H](C)O)C(=O)N[C@@H](CCCNC(=N)N)C(=O)N[C@@H](CCCNC(=N)N)C(=O)N[C@@H](C)C(=O)N1)C(C)C)C(=O)N[C@@H](CC(=O)O)C(=O)N[C@H](C(N)=O)[C@@H](C)O [[A2E3, E16K20(Lactam), D28]G(1 ~ 29)]

SMILES: CSCC[C@H](NC(=O)[C@H](CC(C)C)NC(=O)[C@H](Cc1c[nH]c2ccccc12)NC(=O)[C@H](CCC(N)=O)NC(=O)[C@@H](NC(=O)[C@H](Cc1ccccc1)NC(=O)[C@H](CC(=O)O)NC(=O)[C@H](CCCCN)NC(=O)[C@H](C)NC(=O)[C@H](CCCNC(=N)N)NC(=O)[C@H](CCCNC(=N)N)NC(=O)[C@H](CCC(=O)O)NC(=O)[C@H](CC(=O)O)NC(=O)[C@H](CC(C)C)NC(=O)[C@H](Cc1ccc(O)cc1)NC(=O)[C@H](CCCCN)NC(=O)[C@H](CO)NC(=O)[C@H](Cc1ccc(O)cc1)NC(=O)[C@H](CCC(=O)O)NC(=O)[C@H](CO)NC(=O)[C@@H](NC(=O)[C@@H](N)Cc1ccccc1)[C@@H](C)O)C(C)C)C(=O)N[C@@H](CC(N)=O)C(=O)N[C@H](C(=O)NCC(=O)N1CCC[C@H]1C(=O)N[C@@H](CO)C(=O)N[C@@H](CO)C(=O)NCC(=O)N[C@@H](C)C(=O)N1CCC[C@H]1C(=O)N1CCC[C@H]1C(=O)N1CCC[C@H]1C(=O)N[C@@H](CO)C(N)=O)[C@@H](C)O [[E9, E16, K20] G(6-39)]
EC50 (GLP-1 Receptor; [2]): 1040 ± 11.9 nM | Glucagon antagonism IC50(nM) (inhibit 0.2-0.8 nM glucagon) (Glucagon Receptor; Table 16, combined results of three assays): weak agonist

EC50 (GLP-1 Receptor; [3]): 151 ± 8.8 nM | IC50 (Glucagon Receptor; Glucagon IC50 (nM), Table 14): 10 to 30 nM | IC50 (Glucagon Receptor; [4]): 12.7 ± 1.1 nM
SMILES: CSCC[C@H](NC(=O)[C@H](CC(C)C)NC(=O)[C@H](Cc1c[nH]c2ccccc12)NC(=O)[C@H](CCC(N)=O)NC(=O)[C@@H](NC(=O)[C@H](Cc1ccccc1)NC(=O)[C@H](CC(=O)O)NC(=O)[C@@H]1CCCCNC(=O)CC[C@H](NC(=O)[C@H](CC(=O)O)NC(=O)[C@H](CC(C)C)NC(=O)[C@H](Cc2ccc(O)cc2)NC(=O)[C@H](CCCCN)NC(=O)[C@H](CO)NC(=O)[C@H](Cc2ccc(O)cc2)NC(=O)[C@H](CCC(=O)O)NC(=O)[C@H](CO)NC(=O)[C@@H](NC(=O)[C@H](Cc2ccccc2)NC(=O)[C@@H](NC(=O)CN)[C@@H](C)O)[C@@H](C)O)C(=O)N[C@@H](CCCNC(=N)N)C(=O)N[C@@H](CCCNC(=N)N)C(=O)N[C@@H](C)C(=O)N1)C(C)C)C(=O)N[C@@H](CC(=O)O)C(=O)N[C@H](C(N)=O)[C@@H](C)O [[E9, E16K20(lactam), D28]G(4 ~ 29)] (H-GTFTSEYSKYLDERRAKDFVQWLMDT-NH2; lactam 13-17; N-terminus assumed)

EC50 (GLP-1 Receptor; GLP-1 EC50 (nM), Table 14): 5 to 25 nM | EC50 (GLP-1 Receptor; [5]): 6.9 nM and 4.2 nM | EC50 (GLP-1 Receptor; [3]): 10.6 ± 0.97 nM | EC50 (GLP-1 Receptor; GLP-1 agonism EC50 (nM), Table 21): 5 to 28 nM | IC50 (Glucagon Receptor; Glucagon IC50 (nM), Table 14): 10 to 30 nM | IC50 (Glucagon Receptor; Glucagon antagonism IC50(nM) (inhibit 0.2-0.8 nM glucagon), Table 21): 5 to 27 nM | IC50 (Glucagon Receptor; Glucagon antagonism IC50 (nM, inhibit 0.4 nM glucagon), Table 22): 5 to 27 nM | IC50 (Glucagon Receptor; [4]): 13.7 ± 1.2 nM | IC50 (Glucagon Receptor; [6]): 11.7 ± 2.8 nM | IC50 (Glucagon Receptor; [1]): 5.5 nM
SMILES: CSCC[C@H](NC(=O)[C@H](CC(C)C)NC(=O)[C@H](Cc1c[nH]c2ccccc12)NC(=O)[C@H](CCC(N)=O)NC(=O)[C@@H](NC(=O)[C@H](Cc1ccccc1)NC(=O)[C@H](CC(=O)O)NC(=O)[C@@H]1CCCCNC(=O)CC[C@H](NC(=O)[C@H](CC(=O)O)NC(=O)[C@H](CC(C)C)NC(=O)[C@H](Cc2ccc(O)cc2)NC(=O)[C@H](CCCCN)NC(=O)[C@H](CO)NC(=O)[C@H](Cc2ccc(O)cc2)NC(=O)[C@H](CC(=O)O)NC(=O)[C@H](CO)NC(=O)[C@@H](NC(=O)[C@@H](O)Cc2ccccc2)[C@@H](C)O)C(=O)N[C@@H](CCCNC(=N)N)C(=O)N[C@@H](CCCNC(=N)N)C(=O)N[C@@H](C)C(=O)N1)C(C)C)C(=O)N[C@@H](CC(=O)O)C(=O)N[C@H](C(N)=O)[C@@H](C)O [[PLA6, D9, E16K20(lactam), D28]G(6-29)] (H-[PhLac]TSDYSKYLDERRAKDFVQWLMDT-NH2; lactam 11-15)

EC50 (GLP-1 Receptor; [5]): 38.5 ± 7.6 nM | IC50 (Glucagon Receptor; [6]): 58.3 ± 3.3 nM
SMILES: CSCC[C@H](NC(=O)[C@H](CC(C)C)NC(=O)[C@H](Cc1c[nH]c2ccccc12)NC(=O)[C@H](CCC(N)=O)NC(=O)[C@@H](NC(=O)[C@H](Cc1ccccc1)NC(=O)[C@H](CC(=O)O)NC(=O)[C@H](CCC(N)=O)NC(=O)[C@H](C)NC(=O)[C@H](CCCNC(=N)N)NC(=O)[C@H](CCCNC(=N)N)NC(=O)[C@@H]1CCC(=O)NCCCC[C@H](NC(=O)[C@H](CO)NC(=O)[C@H](Cc2ccc(O)cc2)NC(=O)[C@H](CC(=O)O)NC(=O)[C@H](CO)NC(=O)[C@@H](NC(=O)[C@@H](O)Cc2ccccc2)[C@@H](C)O)C(=O)N[C@@H](Cc2ccc(O)cc2)C(=O)N[C@@H](CC(C)C)C(=O)N[C@@H](CC(=O)O)C(=O)N1)C(C)C)C(=O)N[C@@H](CC(=O)O)C(=O)N[C@H](C(N)=O)[C@@H](C)O [[PLA6, D9, K12E16(Lactam), D28]G(6-29)] (H-[PhLac]TSDYSKYLDERRAQDFVQWLMDT-NH2; lactam 7-11)

SMILES: CSCC[C@H](NC(=O)[C@H](CC(C)C)NC(=O)[C@H](Cc1c[nH]c2ccccc12)NC(=O)[C@H](CCC(N)=O)NC(=O)[C@@H](NC(=O)[C@H](Cc1ccccc1)NC(=O)[C@H](CC(=O)O)NC(=O)[C@H](CCC(N)=O)NC(=O)[C@H](C)NC(=O)[C@H](CCCNC(=N)N)NC(=O)[C@H](CCCNC(=N)N)NC(=O)[C@H](CCC(=O)O)NC(=O)[C@H](CC(=O)O)NC(=O)[C@H](CC(C)C)NC(=O)[C@H](Cc1ccc(O)cc1)NC(=O)[C@H](CCCCN)NC(=O)[C@H](CO)NC(=O)[C@H](Cc1ccc(O)cc1)NC(=O)[C@H](CCC(=O)O)NC(=O)[C@H](CO)NC(=O)[C@@H](NC(=O)[C@@H](O)Cc1ccccc1)[C@@H](C)O)C(C)C)C(=O)N[C@@H](CC(N)=O)C(=O)N[C@H](C(=O)NCC(=O)N1CCC[C@H]1C(=O)N[C@@H](CO)C(=O)N[C@@H](CO)C(=O)NCC(=O)N[C@@H](C)C(=O)N1CCC[C@H]1C(=O)N1CCC[C@H]1C(=O)N1CCC[C@H]1C(=O)N[C@@H](CO)C(N)=O)[C@@H](C)O [[PLA6, E9, E16]G(6-39)] (H-[PhLac]TSEYSKYLDERRAQDFVQWLMNTGPSSGAPPPS-NH2)
EC50 (GLP-1 Receptor; [2]): 1760 nM | IC50 (Glucagon Receptor; Glucagon antagonism IC50 (nM, inhibit 0.2-0.8 nM glucagon), Table 16, combined results of three assays): 58.1 nM
